The record followed here is PubChem BioAssay (NCI).

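Test compounds were applied to cells in 96-well plates for 48 hours at 5 doses. The concentration for full growth arrest is given as TGI.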 Some results are limits rather than exact numbers.

What all share (test): NCI-60 cell line screen, 48 h
The test system of assay [1] is BT-549 breast.
Assay [2] has as its system EKVX NSCLC.
Assay [3] relates to HT29 colon.
Assay [4] has as its system M14 melanoma.
Assay [5] concerns OVCAR-3 ovarian.
For assay [6], the system named is SF-539 CNS.
The test system of assay [7] is SK-MEL-28 melanoma.
The subject of assay [8] is SK-OV-3 ovarian.
In assay [9] the test system is SN12C renal.
Assay [10] has as its system T-47D breast.

For the molecule `O=C([C@H](O)[C@@H](O)c1ccc(Br)cc1)C12CC3CC(CC(C3)C1)C2`, the TGI in assay [1] was 24 µM; in [2], more than 76.9 µM; in [3], more than 61.9 µM; in assay [4], 37.5 µM; in assay [5], 32.4 µM; in assay [6], more than 28.7 µM. In addition, the TGI in assay [7] was more than 68.6 µM; in [8] it was more than 75.2 µM; in [9], more than 65.8 µM; in assay [10], more than 29.3 µM.

As for `COc1ccc2[nH]c(C(=O)N3CC(CCl)c4ccc([N+](=O)[O-])cc43)cc2c1` (stereo not given), the TGI in assay [1], in assay [2], in assay [3], in assay [4], in assay [5] and in [6] was more than 100 µM throughout. Further, the TGI in assay [7], in assay [8], in assay [9] and in [10] was more than 100 µM throughout.
